Molecules are shown by their SMILES. Converted amounts (≈) assume the structure as drawn. “And” between values parts separate entries of the source, which are not always exact repeats. Equal values may be shown once.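 Assay format: 96-well plates, 48-hour exposure. Here, GI50 denotes the concentration required for 50% inhibition of growth. At the TGI there is no net growth.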

The first experiment relates to SN12K1 renal. The experiment is described as follows: NCI tumour cell line growth inhibition, 48 h.
For `CSc1ccc(/C=C2\CNC/C(=C\c3ccc(SC)cc3)C2=O)cc1`, the GI50 was 15.5 µg/mL (≈ 42.1 µM) and the TGI amounted to 103 µg/mL (≈ 280 µM).

The next experiment deals with P388/ADR leukemia. The experiment is described as follows: NCI tumour cell line growth inhibition, 48 h.
Regarding `CSc1ccc(/C=C2\CNC/C(=C\c3ccc(SC)cc3)C2=O)cc1`, the GI50 was 150 µg/mL (≈ 408 µM) and the TGI worked out at 150 µg/mL (≈ 408 µM).

The next experiment relates to MDA-N. Briefly: NCI tumour cell line growth inhibition, 48 h.
`CC[N+]1(C)CCC(O)(c2ccc(C)cc2)C(C(=O)c2ccc(C)cc2)C1` (configuration not stated): the TGI was more than 100 µM. Compound `CC(C)c1ccc2nc3ccc(C(=O)NCCN(C)C)cn3c(=O)c2c1` showed a TGI of 31.8 µM. On the same count and under the same terms, with `O=c1oc2ccccc2c(O)c1C=NC(=S)c1ccncc1` the figure was more than 100 µM. Still for that read-out and setting: with `NCCCCNCCCNC(=O)CNC(=O)CC(O)C(N)CCCC(NC(=O)C(CN)NC(=O)C(O)CNC(=O)CC(N)c1ccc(O)cc1)C(=O)O` (configuration not stated) the figure was more than 10 µM; with `CCOc1ccc(N=Nc2ccc3cc(/C(C)=N/NC(=O)/C(C#N)=C\c4ccc(N(CCC#N)CCC#N)cc4)c(=O)oc3c2)cc1`, more than 10 µM. Consider `O=C(O)c1cc[c]([Hg][S]c2ncnc3nc[nH]c23)cc1`, for which the GI50 is 4.84 µM and the TGI worked out at 20.3 µM. Compound `CCN(CC)c1ccc(NC(=S)NN(C)C)cc1` displayed a TGI of more than 10 µM. Same read-out and setting: with `CC(O)CNC1=CC(=O)C(=O)c2ccccc21` (configuration not stated) the figure was 34.5 µM; with `CC1(C)CCC(C)(C)c2cc(C(=O)Nc3ccc(C(=O)O)cc3)ccc21`, more than 62.8 µM. On the same count and under the same terms, the figure for `CC1=C(C(=O)NC2CCCCC2)CC(C(=O)NC2CCCCC2)=C(C)N1` is more than 100 µM. Same read-out and setting: the figure for `Cc1ccc(C(=O)Cc2nc3c([nH]c2=O)c(C)nn3-c2ccccc2)c(C)c1` is more than 10 µM; for `Clc1ccccc1NN(Cc1ccccn1)c1ccccc1Cl` it is 36 µM; for `CCCCN1C(=O)CC2[C@@H]3CCc4cc(OC)ccc4C3CC[C@]2(C)C1=O` (some centres not stated) it is more than 10 µM. Regarding `CC(CO)[C@H]1OC(=O)C=C2[C@@]13O[C@@H]3[C@H]1OC(=O)[C@@]3(C)[C@H]4O[C@H]4C[C@@]2(C)[C@@H]13` (some centres not stated), the TGI was determined as 14 µM.

For the compound `Cc1nc(SCC(N)=O)c2sc(=S)n(-c3ccccc3)c2n1`, the TGI is more than 10 µM. On the same count and under the same terms, with `O=C(CC(C(=O)c1cccs1)c1ccc2c(c1)OCO2)c1ccc(Br)cc1` (configuration not stated) the figure was more than 100 µM; with `COc1cc(-c2oc3ccccc3c(=O)c2O)cc(OC)c1OC`, more than 100 µM; with `Clc1ccc(COC(Cn2ccnc2)c2ccc(Cl)cc2Cl)cc1` (configuration not stated), 27.4 µM and 25.4 µM. `Nc1c(C(=O)Nc2ccc([As](=O)(O)O)cc2)cnc2nnnn12` displayed a TGI of more than 100 µM. In turn, `N#Cc1ccc(-c2nc(C#N)c(N)o2)cc1` gave a TGI of more than 10 µM.

For a further experiment, the system named is P388 leukemia. The experiment is described as follows: NCI tumour cell line growth inhibition, 48 h.
`CSc1ccc(/C=C2\CNC/C(=C\c3ccc(SC)cc3)C2=O)cc1`: the GI50 is 150 µg/mL (≈ 408 µM) and the TGI was determined as 150 µg/mL (≈ 408 µM).
